According to patent US20060286561A1, “PROPARGYLETHOXYAMINO NUCLEOTIDES” (Applera Corporation; Applied Biosystems Group, priority 1996, published 2006):

Columns and labels:
Format in all cases: biochemical
[1] = target: T1, AmpliTaq DNA Polymerase, FS (Thermus aquaticus, UniProt P19821, F667Y/G46D); assay: Terminator Titration Assay (dye-terminator cycle sequencing reaction); conditions: for Relative Molar Excess Terminator Required: to form a full sequencing ladder
T1 construct: purchased PE Applied Biosystems p/n 402117
T1 sequence (P19821 whole entry G46D/F667Y): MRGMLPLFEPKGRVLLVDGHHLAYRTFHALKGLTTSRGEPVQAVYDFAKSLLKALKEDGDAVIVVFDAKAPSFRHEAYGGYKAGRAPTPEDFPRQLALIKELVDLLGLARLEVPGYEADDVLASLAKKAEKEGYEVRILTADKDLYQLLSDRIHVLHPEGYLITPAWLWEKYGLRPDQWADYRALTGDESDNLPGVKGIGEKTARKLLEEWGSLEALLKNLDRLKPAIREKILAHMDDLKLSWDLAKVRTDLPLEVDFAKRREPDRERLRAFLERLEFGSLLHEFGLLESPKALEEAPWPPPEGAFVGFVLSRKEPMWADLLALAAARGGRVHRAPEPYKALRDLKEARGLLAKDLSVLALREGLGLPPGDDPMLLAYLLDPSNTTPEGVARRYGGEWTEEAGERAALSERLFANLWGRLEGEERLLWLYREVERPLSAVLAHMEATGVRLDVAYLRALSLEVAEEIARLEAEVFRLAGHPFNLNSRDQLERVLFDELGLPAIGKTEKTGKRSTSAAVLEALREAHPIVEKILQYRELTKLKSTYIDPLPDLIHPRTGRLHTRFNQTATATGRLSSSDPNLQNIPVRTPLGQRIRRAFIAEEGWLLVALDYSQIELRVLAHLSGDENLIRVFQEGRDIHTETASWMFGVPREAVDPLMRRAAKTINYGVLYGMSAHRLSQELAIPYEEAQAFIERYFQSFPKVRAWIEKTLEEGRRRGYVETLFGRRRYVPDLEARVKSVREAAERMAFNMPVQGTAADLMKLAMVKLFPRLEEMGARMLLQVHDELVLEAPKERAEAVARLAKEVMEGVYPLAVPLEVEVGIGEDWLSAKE
Source text: The Terminator Titration Assay was used to determine the minimum amount of dye terminator required to create a full sequencing ladder, i.e., a sequencing ladder including all fragments terminating in a particular base having a length of between about 20 to about 600 nucleotides. The key components of the assay were (i) a primer labeled with a first dye, and (i) a terminator labeled with a second dye spectrally resolvable from the first dye. In the assay, when an insufficient concentration of dye terminator was added to the sequencing reaction, no dideoxy-terminated fragments were formed, and all that was seen on the sequencing gel were products formed by “false stops” that were labeled with the first dye only. As used herein the term “false stops” refer to primer extension products not terminating in a dideoxy terminator, such products probably being formed when the polymerase enzyme spontaneously disengages with the template strand. When too much terminator was used, only short termination products were formed, i.e., less than about 50 nucleotides in length, such products including both the first and second dyes. When the proper amount of terminator was used, a full sequencing ladder was produced, each fragment of the ladder being labeled with both the first and second dyes.
The dye-terminator reactions were performed using AmpliTaq DNA Polymerase, FS following protocols provided in the ABI PRISM™ Dye Terminator Cycle Sequencing Core Kit Manual (PE Applied Biosystems p/n 402116). (The FS enzyme is a recombinant Thermus aquaticus DNA polymerase having two point mutations--G46D and F667Y). All reagents except the dNTP mix, dye labeled primers, and dye-labeled terminators were from an ABI PRISM™ Dye Terminator Core Kit (PE Applied Biosystems p/n 402117). The dNTP mix consisted of 2 mM each of dATP, dCTP, dGTP and dTTP. A premix of reaction components was prepared as shown in the following table wherein all quantities are given on a per reaction basis:
Reactions were assembled in 0.5 ml tubes adapted for the Perkin-Elmer 480 DNA Thermal Cycler (PE Applied Biosystems p/n N801-100). Reaction volumes were 20 μL, including 15 μL, of the above reaction premix, a variable amount of dye labeled terminator, and a sufficient volume of water to bring the total reaction volume up to 20 μL. From 1 to 1000 pmol of the dye terminator was added to each reaction. 30 μL of mineral oil was added to the top of each reaction to prevent evaporation. Reactions were thermocycled as follows: 96° C. for 30 sec, 50° C. for 15 sec, and 60° C. for 4 min, for 25 cycles; followed by a 4° C. hold cycle.
All reactions were purified by spin-column purification on Centri-Sep spin columns according to manufacturer's instructions (Princeton Separations p/n CS-901). Gel material in the column was hydrated with 0.8 mL deionized water for at least 30 minutes at room temperature. After the column was hydrated and it was determined that no bubbles were trapped in the gel material, the upper and lower end caps of the column were removed, and the column was allowed to drain by gravity. The column was then inserted into the wash tubes provided in the kit and centrifuged in a variable speed microcentrifuge at 1300×g for 2 minutes, removed from the wash tube, and inserted into a sample collection tube. The reaction mixture was carefully removed from under the oil and loaded onto the gel material. Columns were centrifuged in a variable speed microcentrifuge at 1300×g for 2 minutes. Eluted samples were then dried in a vacuum centrifuge.
Prior to loading onto a sequencing gel, the dried samples were resuspended in 25 μL of Template Suppression Reagent (PE Applied Biosystems p/n 401674), vortexed, heated to 95° C. for 2 minutes, cooled on ice, vortexed again, and centrifuged (13,000×g). 10 μL of the resuspended sample was aliquoted into sample vials (PE Applied Biosystems p/n 401957) adapted for the PE ABI PRISM™ 310 Genetic Analyzer (PE Applied Biosystems p/n 310-00-100/120). […]

[2] = target: AmpliTaq FS Polymerase (mutant form of Taq DNA polymerase) (Thermus aquaticus, UniProt P19821, F667Y/G46D); assay: Single-Nucleotide Incorporation Assay for relative enzyme selectivity; conditions: for ddCTP/(Dye)-ddCTP (ratio of incorporation rates, preference for unlabeled ddCTP): ddCTP and dye-ddCTP each 200 μM, 8 nM enzyme, 60° C., corrected for energy transfer
Sequence of AmpliTaq FS Polymerase (mutant form of Taq DNA polymerase) (P19821 whole entry G46D/F667Y): as above
Source text: In the assay, an unlabeled terminator and its cognate dye-labeled terminator are present in equal concentrations and allowed to compete for the same polymerase-substrate binding site under enzyme limited (steady-state) conditions.
With reference to FIG. 3, the components of the assay include a 36 nucleotide template (5); a 25 nucleotide primer (10) having a sequence complementary to the template and a first fluorescent label at the 5′-end (15); an unlabeled terminator (20); a dye-labeled terminator (25) having a second fluorescent label attached thereto (30) which is spectrally resolvable from the first fluorescent label; and a polymerase enzyme. In the present example, the unlabeled terminator was 2′,3′-ddCTP and the dye-labeled terminator was 6-(FAM)-ddCTP where different linker arms were used to attach the dye to the nucleotide. The template DNA contained a single G (35) at the template position following the end of the primer.
Products (40) and (45) were detected by resolving them electrophoretically and detecting the resulting bands using an ABI PRISM™ 373 DNA Sequencer (PE Applied Biosystems). A typical banding pattern consisted of a 25-mer band corresponding to the labeled primer (10), a 26-mer band corresponding to the product (40) and an “apparent 27-mer” which corresponded to product (45). The apparent extra base seen in product (45) is a result of the effect of the dye-labeled terminator on the electrophoretic mobility of the fragment. By taking samples from a reaction mixture and measuring the relative amounts of DNA in the 25-mer, 26-mer, and apparent 27-mer bands as a function of time, it was possible to measure the relative incorporation rates of the unlabeled and dye-labeled terminators in the reaction. […] In this manner, it was possible to measure the effect of linker structure on dye-terminator incorporation.
For the case of product (45), it is necessary to correct the fluorescence signal for fluorescence energy transfer which takes place between the first fluorescent label (15) located at the 5′-end of product (45), TAMRA in this example, and the second fluorescent label (30) located on the terminator positioned at the 3′-end of product (45), FAM in this example. Under the conditions used for detection, the presence of the 3′-FAM label serves to enhance the signal resulting from the TAMRA label. The energy-transfer correction is accomplished by synthesizing a doubly labeled internal standard molecule having the same structure as product (45), preparing a control sample containing equal moles of the 5′-TAMRA labeled primer (10) and the doubly labeled internal standard molecule, and running the control sample in a control lane on the same gel as assay products (40) and (45). Any difference in TAMRA fluorescence between the primer (10) and the doubly labeled internal standard is a quantitative measure of the extent of energy transfer between the dye moieties in the assay product (45). […] This measurement was used to correct the TAMRA fluorescence from the product (45) in each of the test sample lanes.
(The numbers in parenthesis next to certain components refer to elements in FIG. 3.)
The assay reactions were prepared as follows. Two 2×-concentrated “Half Reaction Mixtures” were prepared and held on ice. A first solution, the “2× Enz·DNA” mixture, comprised […] template/primer DNA and […] AmpliTaq FS in 80 mM TRIS buffer. A second solution, the “2× Mg·Nuc” mixture, comprised 80 mM TRIS buffer plus 4.8 mM MgCl2 and each of the nucleotides at 400 μM. A “Zero Time Control” sample was prepared by adding 1 μl of the 2× Enz-DNA mixture to 25 μl of “STOP Solution” (0.5 M EDTA, […]), and, after mixing, adding 1 μl of the 2× Mg·Nuc mixture. The Zero Time Control sample was held on ice until the remainder of the timed samples were also collected for further processing. […]

[3] = target: T1, AmpliTaq DNA Polymerase, FS; assay: Terminator Titration Assay (dye-terminator cycle sequencing reaction); conditions: for mean peak height / relative error of peak height (standard deviation / mean): FIG. 2, at optimal terminator concentration; for relative error of peak height (standard deviation / mean): lower = more even peak heights; for optimal concentration of terminator: FIG. 2, sequencing pattern comparison
[4] = C-terminator linked to 6-FAM dye, unlabeled dideoxy terminator = 1
[5] = C-terminator, various combinations of dyes and linkers, unlabeled terminator = 1

SMILES: Nc1nc(=O)n(C2CCC(COP(=O)(O)OP(=O)(O)OP(=O)(O)O)O2)cc1C#CCOCCOCCNC(=O)c1ccc2c(c1)C(=O)OC21c2ccc(O)cc2Oc2cc(O)ccc21 (stereo not shown) [(6-FAM)-propargyl-2-ethoxyamido-C]
- Relative Molar Excess Terminator Required [1, 4]: 45
- increase of bias against dye-ddCTP versus propargylamido linker ([2]; FAM-ddCTP, from 65× to 110×): about 2 fold
- ddCTP/(Dye)-ddCTP (ratio of incorporation rates, preference for unlabeled ddCTP) [2]: 110×
- ddCTP/(Dye)-ddCTP (ratio of incorporation rates, preference for unlabeled ddCTP) ([2]; listed as FAM-ddCTP (propargyl-2-ethoxyamido linker)): 110 ×

SMILES: Nc1ccn([C@H]2CC[C@@H](COP(=O)(O)OP(=O)(O)OP(=O)(O)O)O2)c(=O)n1 [Unlabeled terminator, 2′,3′-ddCTP, reference compound]
- Relative Molar Excess Terminator Required [1, 4]: 1
- Relative Molar Excess Terminator Required [1, 5]: 1

SMILES: Nc1nc(=O)n(C2CCC(COP(=O)(O)OP(=O)(O)OP(=O)(O)O)O2)cc1C#CCOCCNC(=O)c1ccc2c(c1)C(=O)OC21c2ccc(O)cc2Oc2cc(O)ccc21 (stereo not shown) [(6-FAM)-propargyl-1-ethoxyamido-C]
- reduced molar excess as compared with terminators employing the propargylamido linker ([1]; C-terminator): six-fold
- reduced molar excess as compared with terminators employing a propargyl-2-ethoxyamido linker ([1]; C-terminator linked to 6-FAM): five-fold
- Relative Molar Excess Terminator Required [1, 4]: 9
- Relative Molar Excess Terminator Required [1, 5]: 9
- ddCTP/(Dye)-ddCTP (ratio of incorporation rates, preference for unlabeled ddCTP) [2]: 19×
- ddCTP/(Dye)-ddCTP (ratio of incorporation rates, preference for unlabeled ddCTP) ([2]; listed as FAM-ddCTP (propargyl-1-ethoxyamido linker)): 19 ×
- mean peak height [3]: 504
- relative error of peak height (standard deviation / mean) [3]: 0.436
- optimal concentration of terminator [3]: 50 pmol

SMILES: Nc1nc(=O)n(C2CCC(COP(=O)(O)OP(=O)(O)OP(=O)(O)O)O2)cc1C#CCNC(=O)c1ccc2c(c1)C(=O)OC21c2ccc(O)cc2Oc2cc(O)ccc21 (stereo not shown) [(6-FAM)-propargylamido-C, reference compound]
- Relative Molar Excess Terminator Required [1, 4]: 55
- Relative Molar Excess Terminator Required [1, 5]: 55
- ddCTP/(Dye)-ddCTP (ratio of incorporation rates, preference for unlabeled ddCTP) [2]: 65×
- ddCTP/(Dye)-ddCTP (ratio of incorporation rates, preference for unlabeled ddCTP) ([2]; listed as FAM-ddCTP (propargylamido linker)): 65 ×
- mean peak height [3]: 1800
- relative error of peak height (standard deviation / mean) [3]: 0.533
- optimal concentration of terminator [3]: 250 pmol
